Laboratory results: the supplement of paper PMC10307832

Key:
Assay in all cases: relative viability (nuclei count vs DMSO), 5 days (fraction); higher = more cells survive
[1] = system: NCI-H1395
Summary of the method: (§1)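 Relative viability divides the nuclei count in treated wells by that in vehicle wells. Lung cancer cell lines were seeded in 1536-well plates, dosed by pin tool the next day, and fixed and stained after 5 days in one step with final 0.05% Triton X-100, 1% formaldehyde and 1 ug/ml Hoechst. Dosing was a single drug or a fixed anchor-drug dose plus five library-drug doses (not always all listed) in √10 steps, and values are medians of duplicate plates imaged at 4×.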

[2] = system: HCC-827
Summary of the method: as §1

[3] = system: SK-MES-1
Summary of the method: as §1

[4] = system: NCI-H1355
Summary of the method: as §1

[5] = system: H3255
Summary of the method: as §1

[6] = system: NCI-H2087
Summary of the method: as §1

[7] = system: UMC-11
Summary of the method: as §1

[8] = system: NCI-H1993
Summary of the method: as §1

[9] = system: NCI-H520
Summary of the method: as §1

[10] = system: NCI-H2405
Summary of the method: as §1

[11] = system: EMC-BAC-2
Summary of the method: as §1

[12] = system: NCI-H2085
Summary of the method: as §1

[13] = system: ChaGo-K-1
Summary of the method: as §1

[14] = system: EPLC-272H
Summary of the method: as §1

[15] = system: NCI-H23
Summary of the method: as §1

[16] = system: NCI-H322M
Summary of the method: as §1

[17] = system: LCLC-97TM1
Summary of the method: as §1

[18] = system: NCI-H1944
Summary of the method: as §1

[19] = system: NCI-H1651
Summary of the method: as §1

[20] = system: NCI-H1793
Summary of the method: as §1

[21] = system: HCC-44
Summary of the method: as §1

**Q.** How did the relative viability ([1]; first compound 0.04 µM) turn out when `C[C@@H]1CN(CC(=O)Nc2ccc3c(c2)Cc2cccc(-c4cc(=O)cc(N5CCOCC5)o4)c2S3)C[C@H](C)O1` + CC1(C)CCC(c2ccc(Cl)cc2)=C(CN2CCN(c3ccc(C(=O)NS(=O)(=O)c4ccc(N[C@H](CCN5CCOCC5)CSc5ccccc5)c(S(=O)(=O)C(F)(F)F)c4)cc3)CC2)C1 [Navitoclax] (partner 0.5 µM) was run?
**A.** The relative viability was 1.16.

**Q.** What about the relative viability ([1]; first compound 0.1265 µM) of the same compound?
**A.** Its relative viability is 1.26.

**Q.** And the relative viability ([1]; first compound 0.4 µM)?
**A.** Its relative viability is 1.35.

**Q.** And the relative viability ([1]; first compound 4 µM)?
**A.** The relative viability was 1.16.

**Q.** What about the relative viability ([2]; first compound 0.04 µM) of the same compound?
**A.** Its relative viability is 0.931.

**Q.** What about the relative viability ([2]; first compound 0.1265 µM) of the same compound?
**A.** Its relative viability is 0.944.

**Q.** What about the relative viability ([2]; first compound 0.4 µM) of the same compound?
**A.** The relative viability was 1.04.

**Q.** What about the relative viability ([2]; first compound 4 µM) of the same compound?
**A.** Its relative viability is 1.03.

**Q.** And the relative viability ([3]; first compound 0.04 µM)?
**A.** Its relative viability is 1.37.

**Q.** And the relative viability ([3]; first compound 0.1265 µM)?
**A.** The relative viability was 1.16.

**Q.** What about the relative viability ([3]; first compound 0.4 µM) of the same compound?
**A.** Its relative viability is 1.1.

**Q.** What about the relative viability ([3]; first compound 4 µM) of the same compound?
**A.** Its relative viability is 1.1.

**Q.** What about the relative viability ([4]; first compound 0.04 µM) of the same compound?
**A.** The relative viability was 0.978.

**Q.** And the relative viability ([4]; first compound 0.1265 µM)?
**A.** Its relative viability is 0.894.

**Q.** And the relative viability ([4]; first compound 0.4 µM)?
**A.** Its relative viability is 0.856.

**Q.** What about the relative viability ([4]; first compound 4 µM) of the same compound?
**A.** Its relative viability is 0.899.

**Q.** And the relative viability ([5]; first compound 0.04 µM)?
**A.** The relative viability was 0.475.

**Q.** And the relative viability ([5]; first compound 0.1265 µM)?
**A.** The relative viability was 0.411.

**Q.** What about the relative viability ([5]; first compound 0.4 µM) of the same compound?
**A.** Its relative viability is 0.463.

**Q.** And the relative viability ([5]; first compound 4 µM)?
**A.** The relative viability was 0.518.

**Q.** What about the relative viability ([6]; first compound 0.04 µM) of the same compound?
**A.** Its relative viability is 0.971.

**Q.** What about the relative viability ([6]; first compound 0.1265 µM) of the same compound?
**A.** Its relative viability is 1.1.

**Q.** And the relative viability ([6]; first compound 0.4 µM)?
**A.** The relative viability was 0.909.

**Q.** And the relative viability ([6]; first compound 4 µM)?
**A.** Its relative viability is 0.923.

**Q.** And the relative viability ([7]; first compound 0.04 µM)?
**A.** The relative viability was 0.32.

**Q.** What about the relative viability ([7]; first compound 0.1265 µM) of the same compound?
**A.** Its relative viability is 0.288.

**Q.** And the relative viability ([7]; first compound 0.4 µM)?
**A.** The relative viability was 0.301.

**Q.** And the relative viability ([7]; first compound 4 µM)?
**A.** The relative viability was 0.229.

**Q.** What about the relative viability ([8]; first compound 0.04 µM) of the same compound?
**A.** The relative viability was 0.933.

**Q.** And the relative viability ([8]; first compound 0.1265 µM)?
**A.** The relative viability was 0.868.

**Q.** What about the relative viability ([8]; first compound 0.4 µM) of the same compound?
**A.** The relative viability was 0.644.

**Q.** And the relative viability ([8]; first compound 4 µM)?
**A.** Its relative viability is 0.865.

**Q.** And the relative viability ([9]; first compound 0.04 µM)?
**A.** Its relative viability is 1.2.

**Q.** What about the relative viability ([9]; first compound 0.1265 µM) of the same compound?
**A.** The relative viability was 1.03.

**Q.** What about the relative viability ([9]; first compound 0.4 µM) of the same compound?
**A.** The relative viability was 0.888.

**Q.** And the relative viability ([9]; first compound 4 µM)?
**A.** Its relative viability is 1.08.

**Q.** What about the relative viability ([10]; first compound 0.04 µM) of the same compound?
**A.** The relative viability was 1.02.

**Q.** What about the relative viability ([10]; first compound 0.1265 µM) of the same compound?
**A.** Its relative viability is 1.1.

**Q.** And the relative viability ([10]; first compound 0.4 µM)?
**A.** Its relative viability is 0.866.

**Q.** And the relative viability ([10]; first compound 4 µM)?
**A.** Its relative viability is 0.872.

**Q.** What about the relative viability ([11]; first compound 0.04 µM) of the same compound?
**A.** Its relative viability is 1.16.

**Q.** What about the relative viability ([11]; first compound 0.1265 µM) of the same compound?
**A.** The relative viability was 1.12.

**Q.** And the relative viability ([11]; first compound 0.4 µM)?
**A.** Its relative viability is 1.17.

**Q.** What about the relative viability ([11]; first compound 4 µM) of the same compound?
**A.** The relative viability was 1.09.

**Q.** And the relative viability ([12]; first compound 0.04 µM)?
**A.** The relative viability was 1.23.

**Q.** And the relative viability ([12]; first compound 0.1265 µM)?
**A.** The relative viability was 1.18.

**Q.** And the relative viability ([12]; first compound 0.4 µM)?
**A.** Its relative viability is 1.02.

**Q.** And the relative viability ([12]; first compound 4 µM)?
**A.** The relative viability was 0.827.

**Q.** And the relative viability ([13]; first compound 0.1265 µM)?
**A.** The relative viability was 0.933.

**Q.** What about the relative viability ([13]; first compound 0.4 µM) of the same compound?
**A.** The relative viability was 0.956.

**Q.** And the relative viability ([13]; first compound 4 µM)?
**A.** The relative viability was 0.936.

**Q.** And the relative viability ([14]; first compound 0.04 µM)?
**A.** The relative viability was 1.09.

**Q.** And the relative viability ([14]; first compound 0.1265 µM)?
**A.** The relative viability was 0.935.

**Q.** And the relative viability ([14]; first compound 0.4 µM)?
**A.** The relative viability was 1.11.

**Q.** And the relative viability ([14]; first compound 4 µM)?
**A.** The relative viability was 0.911.

**Q.** What about the relative viability ([15]; first compound 0.04 µM) of the same compound?
**A.** The relative viability was 1.

**Q.** What about the relative viability ([15]; first compound 0.1265 µM) of the same compound?
**A.** Its relative viability is 1.03.

**Q.** What about the relative viability ([15]; first compound 0.4 µM) of the same compound?
**A.** The relative viability was 0.708.

**Q.** And the relative viability ([15]; first compound 4 µM)?
**A.** Its relative viability is 0.668.

**Q.** What about the relative viability ([16]; first compound 0.04 µM) of the same compound?
**A.** Its relative viability is 1.17.

**Q.** What about the relative viability ([16]; first compound 0.1265 µM) of the same compound?
**A.** The relative viability was 1.18.

**Q.** And the relative viability ([16]; first compound 0.4 µM)?
**A.** The relative viability was 1.23.

**Q.** What about the relative viability ([16]; first compound 4 µM) of the same compound?
**A.** Its relative viability is 1.12.

**Q.** What about the relative viability ([17]; first compound 0.1265 µM) of the same compound?
**A.** The relative viability was 0.645.

**Q.** And the relative viability ([17]; first compound 0.4 µM)?
**A.** The relative viability was 0.279.

**Q.** What about the relative viability ([17]; first compound 4 µM) of the same compound?
**A.** Its relative viability is 0.318.

**Q.** What about the relative viability ([18]; first compound 0.1265 µM) of the same compound?
**A.** The relative viability was 1.02.

**Q.** What about the relative viability ([18]; first compound 0.4 µM) of the same compound?
**A.** The relative viability was 1.11.

**Q.** And the relative viability ([18]; first compound 4 µM)?
**A.** Its relative viability is 1.06.

**Q.** What about the relative viability ([19]; first compound 0.04 µM) of the same compound?
**A.** The relative viability was 1.05.

**Q.** And the relative viability ([19]; first compound 0.1265 µM)?
**A.** The relative viability was 0.987.

**Q.** What about the relative viability ([19]; first compound 0.4 µM) of the same compound?
**A.** Its relative viability is 0.836.

**Q.** And the relative viability ([19]; first compound 4 µM)?
**A.** Its relative viability is 1.03.

**Q.** And the relative viability ([20]; first compound 0.04 µM)?
**A.** The relative viability was 0.495.

**Q.** What about the relative viability ([20]; first compound 0.1265 µM) of the same compound?
**A.** Its relative viability is 0.341.

**Q.** What about the relative viability ([20]; first compound 0.4 µM) of the same compound?
**A.** The relative viability was 0.322.

**Q.** What about the relative viability ([20]; first compound 4 µM) of the same compound?
**A.** Its relative viability is 0.377.

**Q.** And the relative viability ([21]; first compound 0.04 µM)?
**A.** Its relative viability is 0.987.

**Q.** And the relative viability ([21]; first compound 0.1265 µM)?
**A.** The relative viability was 0.894.

**Q.** And the relative viability ([21]; first compound 0.4 µM)?
**A.** Its relative viability is 0.835.

**Q.** What about the relative viability ([21]; first compound 4 µM) of the same compound?
**A.** Its relative viability is 0.943.
